# Test results: US8648063B2, “Potentiation of cancer chemotherapy by 7-(2, 5-dihydro-4-imidazo [1, 2-a] pyridine-3-yl-2,5-dioxo-1H-pyrrol-3-yl)-9-fluoro-1,2,3,4 tetrahydro -2-(1-piperidinyl-carbonyl)-pyrrolo [3,2,1-jk] [1,4] benzodiazepine” (Eli Lilly and Company, priority 2007, dated 2014)
# Columns and labels:
# AGS = assay: Caspase-3/7 apoptosis assay (Apo-ONE) in AGS; assay type: cell-based; settings: Cmpd I 900 nM
# Source text: (§1) Apoptosis or programmed cell death is characterized by a set of biochemical reactions, one of which is the induction of caspases. Activated caspases are proteases that participate in a cascade of cleavage events that disable key enzymes responsible for cell homeostasis and repair. Caspases 3 and 7 play key effector roles in apoptosis and can be detected and measured by a fluorescent biochemical assay. The increase of Caspase-3/7 activity in cells is directly correlated to apoptotic activity. (D. W. Nicholson, et al., Nature, 376, 37-43 (1995)) The Promega Apo-ONE Homogeneous Caspase-3/7 Assay Kit was used (Catalog #G7791). The assay buffer consists of 30 mM HEPES (N-(2-hydroxyethyl)piperazine-M-(2-ethanesulfonic acid) pH 7.4, 150 mM NaCl, 50 mM KCl, 10 mM MgCl2, 0.4 mM EGTA (ethylene glycol tetraacetic acid), 0.5% Nonidet P40 (octylphenolpoly(ethyleneglycol ether)), 0.1% CHAPS (3-[(3-Cholamidopropyl)dimeth-ylammonio]-1-propanesulfonate hydrate and 10% sucrose, which lyses/permeabilizes cultured cells and a caspase 3/7 substrate, Z-DEVD (Z-Asp(OMe)-Glu(OMe)-Val-Asp(OMe)), coupled to a profluorescent rhodamine 110. When the buffer-substrate mixture is added to a test sample, the cleavage and subsequent removal of the DEVD peptides by caspase 3/7 activity results in intense fluorescence of the rhodamine 110 leaving group, which is detected by excitation at 499 nm. The amount of fluorescent product is proportional to the amount of caspase 3/7 cleavage activity in the sample.
# (§2) To measure the apoptotic effect of test compounds, tumor cells are plated at 1×10^4 cells per well in 96 well plates and incubated overnight at 37° C., with 5% CO2. Tumor cells are treated with test compound at desired concentrations in triplicate, including untreated/negative control wells. […] At the end of the incubation period, a mixture of the assay buffer and substrate is added to each sample well. The fluorescence in each well is measured at an excitation wavelength of 485+/−20 nm and an emission wavelength of 530+/−25 nm. The % increase of caspase activity in treated cells is calculated relative to untreated controls.
# (§3) The data in Tables 1-12 are expressed as % increase of caspase activity relative to untreated controls unless otherwise noted.
# MKN 45 = assay: Caspase-3/7 apoptosis assay (Apo-ONE) in MKN 45; assay type: cell-based
# Source text: as §1, §2, §3
# HCT-116 = assay: Caspase-3/7 apoptosis assay (Apo-ONE) in HCT-116; assay type: cell-based, human; settings: 48 hrs
# Source text: as §1
# (§4) To measure the apoptotic effect of test compounds, tumor cells are plated at 1×10^4 cells per well in 96 well plates and incubated overnight at 37° C., with 5% CO2. Tumor cells are treated with test compound at desired concentrations in triplicate, including untreated/negative control wells. The assay plates are re-incubated for 48 hrs. At the end of the incubation period, a mixture of the assay buffer and substrate is added to each sample well. The fluorescence in each well is measured at an excitation wavelength of 485+/−20 nm and an emission wavelength of 530+/−25 nm. The % increase of caspase activity in treated cells is calculated relative to untreated controls.
# as §3
# A2780 = assay: Caspase-3/7 apoptosis assay (Apo-ONE) in A2780; assay type: cell-based, human
# Source text: as §1, §2, §3
# Colo-205 = assay: Caspase-3/7 apoptosis assay (Apo-ONE) in Colo-205; assay type: cell-based, human; settings: 48 hrs
# Source text: as §1, §4, §3
# NCI-H460 = assay: Caspase-3/7 apoptosis assay (Apo-ONE) in NCI-H460; assay type: cell-based, human; settings: 48 hrs
# Source text: as §1, §4, §3
# Calu-6 = assay: Caspase-3/7 apoptosis assay (Apo-ONE) in Calu-6; assay type: cell-based; settings: 48 hrs
# Source text: as §1, §4, §3
# SKOV3 = assay: Caspase-3/7 apoptosis assay (Apo-ONE) in SKOV3; assay type: cell-based; settings: Cmpd I 300 nM, Doxorubicin 1 μM, 48 hrs
# Source text: as §1, with “The amount of fluorescent product is proportional to the amount of caspase 3/7 cleavage activity in the sample.” left out
# [1] = test system: NCI-H460 human non-small cell lung cancer xenografts; assay: Tumor growth delay, NCI-H460 xenografts; assay type: in vivo, CD-1 nu/nu mice; settings: Compound I 5 mg/kg IV, time to 1000 mm^3 vs control
# Procedure: (§5) Cultured cells are implanted subcutaneously in the rear flank of female CD-1 nu/nu strain mice which have been acclimated for one week in the animal facility after receipt from the vendor. Mice are randomized into groups of 7 or 8 mice per group and treatment begun when the mean tumor volume reaches ˜100 mm^3 Compound I is dosed IV and the chemotherapeutic agent is given IP. When the agents are given in combination, the chemotherapeutic agent is dosed 60 minutes prior to Compound I. The tumors are measured 2 times per week by electronic calipers to plot growth curves. Tumor growth delay is the increase in median time it takes for a tumor to reach 1000 mm^3 in volume when compared to a control group. Animals are also monitored for fluctuations in body weight and survival.
# A549 = assay: Caspase-3/7 apoptosis assay (Apo-ONE) in A549; assay type: cell-based; settings: Compound I 300 nM, 48 hrs
# Source text: as §1, §4, §3
# [2] = test system: HCT-116 human colorectal carcinoma xenografts; assay: Tumor growth delay, HCT-116 xenografts; assay type: in vivo, CD-1 nu/nu mice; settings: cisplatin 10 mg/kg IP, Compound I 5 mg/kg IV, alone or combined, 3 cycles separated by 7 days, time to 1000 mm^3 vs control
# Procedure: as §5
# [3] = test system: A2780 human ovarian carcinoma xenografts; assay: Tumor growth delay, A2780 xenografts; assay type: in vivo, CD-1 nu/nu mice; settings: cisplatin 5 mg/kg IP, Compound I 5 mg/kg IV, alone or combined, 3 cycles separated by 7 days, time to 1000 mm^3 vs control
# Procedure: as §5
# KATO III = assay: Caspase-3/7 apoptosis assay (Apo-ONE) in KATO III; assay type: cell-based; settings: Cmpd I 600 nM, Cisplatin 10 μM, 48 hrs
# Source text: as §1, with “The amount of fluorescent product is proportional to the amount of caspase 3/7 cleavage activity in the sample.” left out
# [4] = test system: Colo-205 human colorectal carcinoma xenografts; assay: Tumor growth delay, Colo-205 xenografts; assay type: in vivo, CD-1 nu/nu mice; settings: cisplatin 5 mg/kg IP, Compound I 5 mg/kg IV, alone or combined, 3 cycles separated by 7 days, time to 1000 mm^3 vs control
# Procedure: as §5
# [5] = Cmpd I 300 nM, 5-FU 5 μM, plates incubated for 72 hours
# [6] = Compound I 330 nM, CPT-11 20 nM, 48 hrs
# [7] = Compound I 330 nM, CPT-11 20 nM
# [8] = NCI H-460, Cmpd I 300 nM, Pemetrexed 500 nM
# [9] = Compound I 30 nM, pemetrexed 60 nM, 48 hrs
# [10] = Calu-6, Compound I 30 nM, pemetrexed 60 nM
# [11] = Compound I 30 nM, pemetrexed 60 nM
# [12] = NCI H-460, Cmpd I 300 nM, Gemcitabine 50 nM
# [13] = Cmpd I 60 nM, Gemcitabine 30 nM
# [14] = NCI H-460, Cmpd I 300 nM, Etoposide 1 μM
# [15] = NCI-H460, Compound I 100 nM, carboplatin 10 μM
# [16] = Carboplatin 50 mg/kg IP, alone or combined, every 14 days × 3 cycles
# [17] = Cmpd I 300 nM, Carboplatin 5 μM, plates incubated for 72 hours
# [18] = NCI-H460, Compound I 300 nM, cisplatin 1 μM
# [19] = Cisplatin 5 μM, plates incubated for 72 hours
# [20] = Cmpd I 600 nM, Cisplatin 10 μM, 48 hrs
# [21] = Compound I 60 nM, cisplatin 5 μM, 48 hrs
# [22] = Compound I 110 nM, cisplatin 5 μM
# [23] = Calu 6, Cmpd I 33 nM, Cisplatin 2 μM
# [24] = Compound I 300 nM, cisplatin 5 μM
smiles,measurement,setting,value
"O=c1[nH]cc(F)c(=O)[nH]1 [Compound 5-FU, 5-fluorouracil, reference compound]",% increase of caspase activity relative to untreated controls,"AGS; 5-FU 3 μM, 48 hrs",133%
same,% increase of caspase activity relative to untreated controls,MKN 45; [5],415%
same,% increase of caspase activity relative to untreated controls,"HCT-116; Cmpd I 12 nM, 5-FU 5 μM",55%
"CCc1c2c(nc3ccc(OC(=O)N4CCC(N5CCCCC5)CC4)cc13)-c1cc3c(c(=O)n1C2)COC(=O)[C@]3(O)CC [CPT-11, irinotecan, reference compound]",% increase of caspase activity relative to untreated controls,A2780; [6],153%
same,% increase of caspase activity relative to untreated controls,"Colo-205; Compound I 33 nM, CPT-11 20 nM",38%
same,% increase of caspase activity relative to untreated controls,HCT-116; [7],50%
"Nc1nc2[nH]cc(CCc3ccc(C(=O)N[C@@H](CCC(=O)O)C(=O)O)cc3)c2c(=O)[nH]1 [Pemetrexed, pemetrexed, reference compound]",% increase of caspase activity relative to untreated controls,NCI-H460; [8],185%
same,% increase of caspase activity relative to untreated controls,A2780; [9],0%
same,% increase of caspase activity relative to untreated controls,Calu-6; [10],24%
same,% increase of caspase activity relative to untreated controls,HCT-116; [11],23%
"Nc1ccn([C@@H]2O[C@H](CO)[C@@H](O)C2(F)F)c(=O)n1 [Gemcitabine, reference compound]",% increase of caspase activity relative to untreated controls,NCI-H460; [12],1187%
same,% increase of caspase activity relative to untreated controls,HCT-116; [13],324%
"COc1cc([C@@H]2c3cc4c(cc3[C@@H](O[C@@H]3O[C@@H]5CO[C@@H](C)O[C@H]5[C@H](O)[C@H]3O)[C@H]3COC(=O)[C@H]23)OCO4)cc(OC)c1O [Etoposide, etoposide, reference compound]",% increase of caspase activity relative to untreated controls,NCI-H460; [14],251%
"COc1cccc2c1C(=O)c1c(O)c3c(c(O)c1C2=O)C[C@@](O)(C(=O)CO)C[C@@H]3O[C@H]1C[C@H](N)[C@H](O)[C@H](C)O1 [Doxorubicin, doxorubicin, reference compound]",% increase of caspase activity relative to untreated controls,SKOV3,184%
"N.N.O=C([O-])C1(C(=O)[O-])CCC1.[Pt+2] [carboplatin, reference compound]",% increase of caspase activity relative to untreated controls,NCI-H460; [15],16%
same,Tumor Growth Delay Mean ± Standard Error,[1]; [16],2 ± 2.9 days
same,% increase of caspase activity relative to untreated controls,A2780; [17],78%
same,% increase of caspase activity relative to untreated controls,A549; carboplatin 10 μM,14%
"O=C1NC(=O)C(c2cnc3ccccn23)=C1c1cn2c3c(cc(F)cc13)CN(C(=O)N1CCCCC1)CC2 [Compound I, 7-(2,5-dihydro-4-imidazo[1,2-a]pyridine-3-yl-2,5-dioxo-1H-pyrrol-3-yl)-9-fluoro-1,2,3,4-tetrahydro-2-(1-piperidinyl-carbonyl)-pyrrolo[3,2,1-jk][1,4]benzodiazepine]",% increase of caspase activity relative to untreated controls,NCI-H460; [14],222%
same,% increase of caspase activity relative to untreated controls,NCI-H460; [12],186%
same,% increase of caspase activity relative to untreated controls,NCI-H460; [8],38%
same,% increase of caspase activity relative to untreated controls,NCI-H460; [15],122%
same,% increase of caspase activity relative to untreated controls,NCI-H460; [18],99%
same,Tumor Growth Delay Mean ± Standard Error,[2],2 ± 2.2 days
same,% increase of caspase activity relative to untreated controls,"AGS; 5-FU 3 μM, 48 hrs",0%
same,% increase of caspase activity relative to untreated controls,AGS; [19],0%
same,% increase of caspase activity relative to untreated controls,MKN 45; [5],105%
same,% increase of caspase activity relative to untreated controls,MKN 45; [20],162%
same,Tumor Growth Delay Mean ± Standard Error,[1]; [16],3 ± 1.4 days
same,Tumor Growth Delay Mean ± Standard Error,"[1]; carboplatin 10 mg/kg IP, pemetrexed 300 mg/kg IP, every 14 days for 3 cycles",1.4 ± 3.8 days
same,Tumor Growth Delay Mean ± Standard Error,[3],-0.3 ± 1.4 days
same,% increase of caspase activity relative to untreated controls,A2780; [17],55%
same,% increase of caspase activity relative to untreated controls,A2780; [9],10%
same,% increase of caspase activity relative to untreated controls,A2780; [21],0%
same,% increase of caspase activity relative to untreated controls,A2780; [6],1%
same,% increase of caspase activity relative to untreated controls,KATO III,48%
same,% increase of caspase activity relative to untreated controls,"Colo-205; Compound I 33 nM, CPT-11 20 nM",45%
same,% increase of caspase activity relative to untreated controls,Colo-205; [22],12%
same,% increase of caspase activity relative to untreated controls,Calu-6; [23],154%
same,% increase of caspase activity relative to untreated controls,Calu-6; [10],139%
same,% increase of caspase activity relative to untreated controls,"HCT-116; Cmpd I 12 nM, 5-FU 5 μM",47%
same,% increase of caspase activity relative to untreated controls,HCT-116; [13],0%
same,% increase of caspase activity relative to untreated controls,HCT-116; [11],0%
same,% increase of caspase activity relative to untreated controls,HCT-116; [24],16%
same,% increase of caspase activity relative to untreated controls,HCT-116; [7],53%
same,% increase of caspase activity relative to untreated controls,A549; carboplatin 10 μM,52%
same,% increase of caspase activity relative to untreated controls,A549; cisplatin 1 μM,80%
same,Tumor Growth Delay Mean ± Standard Error,[4],10.9 ± 2.2 days
same,% increase of caspase activity relative to untreated controls,SKOV3,0%
"N.N.[Cl][Pt][Cl] [cisplatin, reference compound]",% increase of caspase activity relative to untreated controls,NCI-H460; [18],47%
same,Tumor Growth Delay Mean ± Standard Error,[2],23 ± 10.3 days
same,% increase of caspase activity relative to untreated controls,AGS; [19],147%
same,% increase of caspase activity relative to untreated controls,MKN 45; [20],359%
same,Tumor Growth Delay Mean ± Standard Error,[3],5 ± 1.6 days
same,% increase of caspase activity relative to untreated controls,A2780; [21],1.5%
same,% increase of caspase activity relative to untreated controls,KATO III,389%
same,% increase of caspase activity relative to untreated controls,Colo-205; [22],8%
same,% increase of caspase activity relative to untreated controls,Calu-6; [23],97%
same,% increase of caspase activity relative to untreated controls,HCT-116; [24],36%
same,% increase of caspase activity relative to untreated controls,A549; cisplatin 1 μM,4%
same,Tumor Growth Delay Mean ± Standard Error,[4],18 ± 3.5 days
